In data set [1] the test system is Plasmodium falciparum chloroquine-susceptible strain D6. Nature of the data set: In vitro antimalarial drug susceptibility assay (radiolabeled hypoxanthine incorporation), strain D6. The settings on record: Plasmodium falciparum, D6, 66 h, read-out: Strain D6 IC50, growth inhibition, chloroquine-susceptible strain D6, 66 h incubation. Format: cell-based.
Data set [2] has as its system Plasmodium falciparum chloroquine-resistant strain W2. Nature of the data set: microbe, parasite or virus in culture. The settings on record: Plasmodium falciparum, W2, 66 h, read-out: Strain W2 IC50, growth inhibition, chloroquine-resistant strain W2, 66 h incubation. Format: cell-based.
For data set [3], the system named is D6 and W2 P. falciparum clones. Format: cell-based, Plasmodium falciparum. The settings on record: IC50 (W2)/IC50 (D6) ratio.
The subject of data set [4] is Mycobacterium tuberculosis H37Rv (ATCC 27294). Nature of the data set: Primary screen, Microplate Alamar Blue Assay (MABA), percent inhibition. Format: cell-based. The settings on record: Mycobacterium tuberculosis, Table 5; Alamar assay, primary screening at 6.25 μg/ml; read-out: % Inhib. The method in brief:
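Single-concentration screen at 6.25 μg/ml (or molar equivalent of the heaviest congener in a series) against H37Rv grown in BACTEC 12B medium. Growth read by Microplate Alamar Blue Assay, reported as percent inhibition.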

The next data set relates to M. tuberculosis H37Rv. Nature of the data set: Minimum inhibitory concentration (MIC) in the MABA. Format: cell-based, Mycobacterium tuberculosis. The note with it: Mycobacterium tuberculosis, H37RV, Table 5; Alamar assay, M. tuberculosis H37Rv; read-out: MIC. A digest of the protocol: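 Run under the NIAID TAACF screening program against M. tuberculosis by fluorescence read-out. MIC taken as the lowest concentration giving 90% reduction in fluorescence relative to controls.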

In data set [5] the test system is 60 human tumor cell lines. Nature of the data set: DTP Human Tumor Cell Line Screen, full panel. Format: cell-based. The note with it: range over 60 cell lines, after 48 h, read-out: LC50 (the source's name). Here is the method:
In preliminary tests, four compounds (1B14a, 1C44, 1C45, and 1C46) were chosen by NIH-NCI for in vitro screening. See Drug discovery and development program, National Cancer Institute, Bethesda, (NCI), http://dtp.nci.nih.gov. All tetraoxanes were evaluated in the 3-cell line (lung—NCI-H460, breast—MCF7, CNS-SF-268) one dose primary anticancer assay: growth percentage after 48 hours, at 100 μM concentration of tested compound. Two compounds were eliminated at this step (1B14a and 1C46), while the acid 1C44 and primary amide 1C45 were evaluated against the full panel of 60 human tumor cell lines starting with 10^−4 M concentration of investigated compounds.
The activity of numerous compounds of the present invention against various cancer cell lines was submitted to the Developmental Therapeutics Program (DTP) at the National Cancer Institute (NCI) of the National Institutes of Health (NIH) for screening.
The DTP Human Tumor Cell Line Screen utilizes 60 different human tumor cell lines, representing leukemia, melanoma and cancers of the lung, colon, brain, ovary, breast, prostate, and kidney according to conventional methods known in the art. […]

The test system of data set [6] is standard panel of 12 tumor cell lines in hollow fibers (IP and SC implants). Nature of the data set: Hollow Fiber Assay. The format is in vivo, mice. The procedure: Generally, as a preliminary in vivo screening tool, the following assay is conducted. A standard panel of 12 tumor cell lines were used for the routine hollow fiber screening of the in vitro activities. These include NCI-H23, NCI-H522, MDA-MB-231, MDA-MB-435, SW-620, COLO 205, LOX, UACC-62, OVCAR-3, OVCAR-5, U251 and SF-295 according to conventional methods known in the art. See e.g. Hollingshead, M., et al. (1995) Life Sciences 57:131-141, which is herein incorporated by reference. The cell lines are cultivated in RPMI-1640 containing 10% FBS and 2 mM glutamine. On the day preceeding hollow fiber preparation, the cells are given a supplementation of fresh medium to maintain log phase growth. […] On the day of implantation, samples of each tumor cell line preparation are quantitated for viable cell mass by a stable endpoint MTT assay so that the time zero cell mass is known. […] The optical density of each sample is determined spectrophotometrically at 540 nm and the mean of each treatment group is calculated. The percent net growth for each cell line in each treatment group is calculated and compared to the percent net growth in the vehicle treated controls.
A 50% or greater reduction in percent net growth in the treated samples compared to the vehicle control samples is considered a positive result. […] A compound is referred for xenograft testing if it has a combined IP+SC score of 20 or greater, a SC score of 8 or greater, or produces cell kill of any cell line at either dose level evaluated.

Data set [7] has as its system red blood cell (RBC) membrane. Nature of the data set: Hemolytic activity test. The settings on record: initial experiments.

Values after ≈ are worked out from the molar mass of the structure shown.

As to `COC(=O)CCC(C)[C@H]1CCC2C3C(C[C@H](OC(C)=O)[C@@]21C)[C@@]1(C)CCC2(C[C@H]1C[C@H]3OC(C)=O)OOC1(CCCCCCC1)OO2` (stereo partly drawn) [8c/1B11, Methyl 7α,12α-diacetoxy-5β-cholan-24-oate-3-spiro-6′-(1′,2′,4′,5′-tetraoxacyclohexane)-3′-spirocyclooctane], the IC50 in data set [1] was found to be 0.0321 µg/mL (≈ 0.0484 µM); in data set [2], 0.0133 µg/mL (≈ 0.02 µM). In addition, the “Resistance Index” value in data set [3] came to 0.41. In data set [4], the inhibition at 6.25 µg/mL is 0%. Also, the MIC with M. tuberculosis H37Rv was more than 6.25 µg/mL. Besides, the CC50 in data set [5] is more than 100 µM.

Consider `CCCNC(=O)CCC(C)[C@H]1CCC2C3C(C[C@H](OC(C)=O)[C@@]21C)[C@@]1(C)CCC2(C[C@H]1C[C@H]3OC(C)=O)OOC1(CCCCC1)OO2` (stereo partly drawn) [11/1C20, N-(n-Propyl)-7α,12α-diacetoxy-5β-cholan-24-amide-3-spiro-6′-(1′,2′,4′,5′-tetraoxacyclohexane)-3′-spirocyclohexane], for which the IC50 in data set [1] was determined as 0.00977 µg/mL (≈ 0.0148 µM); in data set [2] it was 0.0045 µg/mL (≈ 0.0068 µM). Further, the “Resistance Index” value in data set [3] is 0.46. Further, the inhibition at 6.25 µg/mL in data set [4] was determined as 88%. Moreover, in the data set on M. tuberculosis H37Rv, the MIC is more than 6.25 µg/mL. Also, the “Total Score” value in data set [6] (combined IP+SC, maximum possible 96) was determined as 20. Besides, in data set [6] (intraperitoneal implants, agent by intraperitoneal injection at 2 dose levels, daily for 4 days), the IP score was determined as 18. The SC score in data set [6] (subcutaneous implants) amounted to 2. Moreover, the “red blood cell (RBC) membrane lysis” value in data set [7] is “no red blood cell (RBC) membrane lysis”.

The values are drawn from patent publication US6906098B2, “Mixed steroidal 1,2,4,5-tetraoxane compounds and methods of making and using thereof” (priority 2002, dated 2005).
